The results in this text go back to article PMC11758220, “Identification of a Privileged Scaffold for Inhibition of Sterol Transport Proteins through the Synthesis and Ring Distortion of Diverse, Pseudo-Natural Products” (ACS Central Science, 2025).

The target in one test is T1, ORP2 (Homo sapiens, UniProt Q9H1P3).
T1 construct: ORP2(49-480); host or cells: E. coli BL21(DE3)
T1 sequence (Q9H1P3 49-480): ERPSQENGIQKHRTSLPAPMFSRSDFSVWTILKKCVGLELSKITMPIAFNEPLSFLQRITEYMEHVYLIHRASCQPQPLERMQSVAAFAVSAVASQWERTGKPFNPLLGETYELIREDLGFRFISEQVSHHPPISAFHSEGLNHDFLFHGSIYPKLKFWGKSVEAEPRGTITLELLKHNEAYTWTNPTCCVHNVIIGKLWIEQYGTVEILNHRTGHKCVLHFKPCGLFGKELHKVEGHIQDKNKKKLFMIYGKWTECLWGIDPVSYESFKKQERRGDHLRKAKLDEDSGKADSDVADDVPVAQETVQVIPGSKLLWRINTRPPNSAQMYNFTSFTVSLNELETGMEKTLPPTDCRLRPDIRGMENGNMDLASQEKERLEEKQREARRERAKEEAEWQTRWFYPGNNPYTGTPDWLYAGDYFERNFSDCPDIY
Briefly: Fluorescence polarisation (FP) competition with NBD-cholesterol, ORP2. Type of test: binding. The settings on record: for ORP2 (FP) inhibition / inhibition at 10 µM: single dose, Dose = 10 µM; for IC50: mean of three experiments run in technical duplicates. An excerpt: (§1) Protein expression constructs
(§2) Human ASTER domains of Aster-A(359-547), -B(364-552) and -C(318-504) were subcloned into a pGEX-6p-2rbs vector, thus introducing the cloning artifact ‘GPLGS’.3 The pGEX-6P-1-GST-OSBP(377- […]
(§3) a gift from James H. Hurley (University of California).4 The pHIS_2His6_Thrombin_STARD4(2-205;C75S) plasmid was a gift from Young Jun Im (Chonnam National University).5 STARD5A was a gift from Nicola Burgess-Brown (Addgene plasmid #42392; http://n2t.net/addgene:42392; […]
(§4) Protein expression and purification […]
(§5) vectors including an N-terminal PreScission-cleavable glutathione S-transferase (GST)-tag were expressed in Escherichia coli (E. coli) OverExpress C41 in Terrific Broth (TB) medium for 16 h at 18 °C after the induction with 0.1 mM isopropyl β-D-1-thiogalactopyranoside (IPTG). Cells were harvested at 3500 × g for 15 minutes and lysed by sonication in buffer containing 50 mM HEPES pH 7.5, 300 mM NaCl, 10 %v/v glycerol, 5 mM dithiothreitol (DTT), 0.1 %v/v Triton X-100 and protease inhibitor mix HP plus (Serva). The lysate was purified by affinity chromatography on a GSTrap FF column (Cytiva) using an ÄKTA Start (Cytiva) in buffer containing 50 mM HEPES pH 7.5, 300 mM NaCl, 10 %v/v glycerol, 5 mM DTT and 0.01 %v/v Triton X-100. The GST-tag was cleaved overnight on the column at 4 °C. The Aster sterol binding domains were further purified by size-exclusion chromatography (SEC) on a HiLoad 16/600 Superdex 75 pg (Cytiva) in buffer containing 20 mM HEPES pH 7.5, 300 mM NaCl, 10 %v/v […]
(§6) STARD5(6-213) harboring an N-terminal His6-Tag were expressed in E. coli BL21(DE3) in Luria-Bertani Broth (LB) medium for approximately 16 h at 18 °C after induction with 0.15 mM IPTG. Cells were harvested at 3500 × g for 15 minutes and lysed by sonication in buffer containing 50 mM HEPES pH 7.5, 150 mM NaCl, 5 %v/v glycerol, 5 mM DTT, 0.1 %v/v Triton X -100 and ethylenediaminetetraacetic acid (EDTA)-free protease inhibitor cocktail (Sigma-Aldrich). The cleared lysate was purified by affinity chromatography on a Ni-NTA Superflow Cartridge (Qiagen) using an ÄKTA Start (Cytiva) in buffer containing 50 mM HEPES pH 7.5, 150 mM NaCl, 5 %v/v glycerol, 5 mM DTT. START domains were eluted by using elution buffer containing 50 mM HEPES pH 7.5, 150 mM NaCl, 5 %v/v glycerol, 5 mM DTT and 500 mM imidazole. Proteins were further purified by SEC on a HiLoad 16/600 Superdex 75 pg (Cytiva) in buffer containing 20 mM HEPES pH 7.5, 150 mM NaCl, 5 %v/v glycerol and 2 mM DTT.
(§7) The ORP domain of human OSBP(377-807) in the pGEX-6p-1 vector with an N-terminal PreScission-cleavable GST-tag was expressed in E. coli OverExpress C41 in LB medium for 16 h at 18 °C after induction with 0.1 mM IPTG. Cells were harvested at 3500 × g for 15 minutes and lysed by sonication in buffer containing 20 mM HEPES pH 7.5, 300 mM NaCl, 10 %v/v glycerol, 5 mM DTT, 0.1 %v/v Triton X-100 and EDTA-free protease inhibitor cocktail (Sigma-Aldrich). The cleared lysate was purified by affinity chromatography on a GSTrap HF column (Cytiva) using an ÄKTA Start (Cytiva) in buffer containing 20 mM HEPES pH 7.5, 300 mM NaCl, 10 %v/v glycerol, 5 mM DTT. OSBP(377 -807) was eluted by using elution buffer containing 20 mM HEPES pH 7.5, 300 mM NaCl, 10 %v/v glycerol, 5 mM DTT and 10 mM reduced glutathione. Proteins were further purified by SEC on a HiLoad 16/600 Superdex 75 pg (Cytiva) using an ÄKTA Explorer (Cytiva) in buffer containing 20 mM HEPES pH 7.5, 150 mM NaCl, 10 %v/v glycerol and 2 mM DTT.
(§8) The ORP domains of human ORP1(534-950) in pET24b(+) and ORP2(49-480) in the pET24b(+) vector including an N-terminal His6-Tag were expressed in E. coli BL21(DE3) in TB medium for approximately 16 h at 18 °C after induction with 0.1 mM IPTG. Cells were collected at 3500 × g for 15 minutes and lysed by sonification in buffer containing 10 mM Tris-HCl pH 8, 300 mM NaCl, 5 % glycerol, 2 mM DTT, 0.1 % Triton X-100 and EDTA-free protease inhibitor cocktail (Sigma-Aldrich). The cleared […]
For orientation: Fluorescence polarisation rises when a labelled molecule tumbles more slowly, as on binding a larger partner.

A further test has as its target T2, Aster-A (Homo sapiens, UniProt Q96CP6).
T2 construct: Aster-A(359-547); GST (PreScission-cleavable) (N, cleaved yes); made in house; host or cells: E. coli OverExpress C41
T2 sequence (Q96CP6 359-547): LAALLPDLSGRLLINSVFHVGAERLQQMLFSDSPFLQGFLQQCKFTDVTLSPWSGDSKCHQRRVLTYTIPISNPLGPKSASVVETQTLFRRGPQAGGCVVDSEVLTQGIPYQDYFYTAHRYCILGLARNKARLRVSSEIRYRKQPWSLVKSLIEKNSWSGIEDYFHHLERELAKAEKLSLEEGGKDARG
Briefly: Fluorescence polarisation (FP) competition with NBD-cholesterol, Aster-A. It counts as binding. The settings on record: for Aster-A (FP) inhibition / inhibition at 10 µM: single dose, Dose = 10 µM; for IC50: mean of three experiments run in technical duplicates.
From the text: as §1, §2, §3, §4, §5, §6, §7, §8

`Cc1c2c(nc3cc(Br)ccc13)[C@@]1(C)CC[C@@H](O)C[C@H]1CC2` [Compound 2c]: at ORP2, the “ORP2 (FP) inhibition” value is 53%. For the same molecule, the “Aster-A (FP) inhibition” value on Aster-A was -1%.
In the case of `C[C@]12CC[C@@H](O)C[C@H]1CCc1c2[nH]c2ccc(F)cc12` [Compound 10d], the “ORP2 (FP) inhibition” value at ORP2 worked out at 42%. Also, the “Aster-A (FP) inhibition” value at Aster-A is recorded as -8%.
Regarding `C[C@]12CC[C@@H](O)C[C@H]1CCc1c2[nH]c2ccc(I)cc12` [Compound 10h], the “ORP2 (FP) inhibition” value on ORP2 was found to be 63.5%. Also, the “Aster-A (FP) inhibition” value at Aster-A is recorded as 7%.
`Cc1cc(C)c2c3c([nH]c2c1)[C@@]1(C)CC[C@@H](O)C[C@H]1CC3` [Compound 10j]: the inhibition (in general, the relative decrease from the control value, in per cent) at 10 µM on ORP2 is 15%; on Aster-A, -2%.
For the molecule `CC12CCC3CC1CCC21C(=Nc2c(Br)cc(C(F)(F)F)cc21)O3` (stereo not drawn) [Compound 15h], on ORP2, the IC50 (in general, the concentration that inhibits the measured activity by half) was found to be 9.6 µM and the inhibition at 10 µM was 49%. Moreover, the “Activity against Aster-A (in words)” value on Aster-A (FP) is “inactive against Aster-A”. For the same molecule, on Aster-A, the IC50 was greater than 80 µM and the inhibition at 10 µM is 2%.
Consider `C[C@]12CC[C@@H](O)C[C@H]1CCc1sc(-c3cccnc3)nc12` [Compound 8c], for which the “ORP2 (FP) inhibition” value on ORP2 is on record as 17%. For the same molecule, the “Aster-A (FP) inhibition” value on Aster-A came out at 0%.
Turning to `C[C@]12CC[C@@H](O)C[C@H]1CCc1nc3cc(F)c(F)cc3nc12` [Compound 7c], the “ORP2 (FP) inhibition” value on ORP2 was found to be 9%. Moreover, on Aster-A, the “Aster-A (FP) inhibition” value was -1%.
On to `C[C@]12CC[C@@H](O)C[C@H]1CCc1c2nc2ccccc2c1-c1ccc(F)cc1` [Compound 2d], for which the inhibition at 10 µM on ORP2 was 14%; at Aster-A, -6%.
Take `C[C@]12CC[C@@H](O)C[C@H]1CCc1c2nc2ccccc2c1-c1ccccc1` [Compound 2b]: the “ORP2 (FP) inhibition” value at ORP2 was found to be 14%. Also, on Aster-A, the “Aster-A (FP) inhibition” value is -2%.
With `C[C@]12CC[C@@H]3C[C@H]1CC[C@@]21C(=Nc2c(F)cc(Cl)cc21)O3` [Compound 15i], the values for the inhibition at 10 µM at ORP2 and on Aster-A were 41% and 46%, respectively. At Aster-A, this molecule displayed an IC50 of 3.63 µM.
Take `CC12CCC3CC1CCC21C(=Nc2ccc(N4CCOCC4)cc21)O3` (single isomer, unassigned; (-)) [(−)-19a]: at ORP2, the IC50 is greater than 50 µM and the “ORP2 (FP) inhibition” value was determined as 32%. On Aster-A, the IC50 amounted to 0.46 µM and the “Aster-A (FP) inhibition” value was 79%.
Consider `C[C@]12CC[C@@H]3C[C@H]1CC[C@@]21C(=Nc2ccc(C(F)(F)F)cc21)O3` [Compound 15g], for which, on ORP2, the IC50 was determined as 8.41 µM and the inhibition at 10 µM was 60%. Further, at Aster-A, the IC50 is 1.6 µM and the inhibition at 10 µM was 79%.
Regarding `C[C@]12CC[C@@H](O)C[C@H]1CCc1nc3cc(Br)c(Br)cc3nc12` [Compound 7e], the “ORP2 (FP) inhibition” value on ORP2 stood at 27%. Besides, the “Aster-A (FP) inhibition” value at Aster-A is listed as -1%.
Consider `COc1ccc(-c2ccc3c(c2)C24CCC5CC(CCC52C)OC4=N3)cc1` (stereo not drawn) [Compound 21b], for which, at ORP2, the IC50 was greater than 80 µM and the inhibition at 10 µM was 45%. On Aster-A, the IC50 amounted to 3.37 µM and the inhibition at 10 µM was 72%.
The matching figures for `CCCCCNc1ccc2c(c1)[C@@]13CC[C@@H]4C[C@@H](CC[C@@]41C)OC3=N2` [Compound 19c]: greater than 80 µM, 38%, 5.03 µM and 59%.
Consider `C[C@]12CC[C@@H](O)C[C@H]1CCC[C@]21NC(=O)c2ccc(F)cc2N1` [Compound 5b], for which, on ORP2, the “ORP2 (FP) inhibition” value was 2% and the inhibition at 10 µM was determined as 7%. Besides, at Aster-A, the “Aster-A (FP) inhibition” value is -2% and the inhibition at 10 µM was -1%.
Consider `C[C@]12CC[C@@H](O)C[C@H]1CCc1c2[nH]c2c(F)cc(Cl)cc12` [Compound 10i], for which the inhibition at 10 µM on ORP2 was 20%; at Aster-A, -8%.
